Experimental data reported in patent US11013235B2 (priority 2015, dated 2021).
Like-named read-outs stand apart in the source and are kept apart here.

Experiments:
Type in all cases: in vivo
[1] = test system: Botrytis cinerea; assay: Control of Botrytis cinerea disease in tobacco (Bc-Nt); settings: 1 μM spraying every 24 hours for one week, water control 6.7
Procedure: (§1) In order to compare the effect of the compounds of formula I to V on the control of diseases in different plants, experiments were conducted in tobacco, tomato and Arabidopsis thaliana plants inoculated with Phytophthora parasitica, Rhizoctonia solani, Alternaria solani, Nocardia sp and Botrytis cinerea, respectively. The compounds were applied by spraying, at a concentration of 1 μM, every 24 hours for one week. The plant mortality rate was determined for the disease produced by Phytophthora parasitica, Rhizoctonia solani and Nocardia sp, while the percentage of leaves with symptoms was determined for the infection by Alternaria solani. In the case of plants affected by Botrytis cinerea, the lesion diameter was measured. […] Each treatment included fifty plants. As control, plants treated with water were studied. The plants of each treatment were previously inoculated with the indicated pathogens, according to different inoculation protocols (Frontiers in Plant Science 3: 268, 1-6, 2012), and later they were treated with the compounds.

[2] = test system: Meloidogyne incognita; assay: Nematode control, nodules per plant: Meloidogyne incognita; settings: 1 μM foliar application every 5 days, evaluation 35 days after, control 34
Procedure: (§2) The solutions of the compounds were prepared in ethanol and diluted in water, up to a concentration of 1 μM for a foliar application. Applications were conducted every 5 days, spraying only the leafs with each compound. Ten plants were used for each treatment and the final evaluation was performed 35 days after, by quantifying the number of nodules per plant.

[3] = test system: Botrytis cinerea; assay: Control of Botrytis cinerea disease in Arabidopsis (Bc-At); settings: 1 μM spraying every 24 hours for one week, water control 8.7
Procedure: as §1

[4] = test system: Nocardia sp; assay: Control of Nocardia sp disease in tobacco (N-Nt); settings: 1 μM spraying every 24 hours for one week, water control 58
Procedure: as §1

[5] = test system: Rhizoctonia solani; assay: Control of Rhizoctonia solani disease in tobacco (Rs-Nt); settings: 1 μM spraying every 24 hours for one week, water control 87
Procedure: as §1

[6] = test system: Radopholus similis; assay: Nematode control, nodules per plant: Radopholus similis; settings: 1 μM foliar application every 5 days, evaluation 35 days after, control 45
Procedure: as §2

[7] = test system: Rhizoctonia solani; assay: Control of Rhizoctonia solani disease in tomato (Rs-SI); settings: 1 μM spraying every 24 hours for one week, water control 96
Procedure: as §1

[8] = test system: Alternaria solani; assay: Control of Alternaria solani disease in tomato (As-SI); settings: 1 μM spraying every 24 hours for one week, water control 68
Procedure: as §1

[9] = test system: Phytophthora parasitica; assay: Control of Phytophthora parasitica disease in tobacco (Pp-Nt); settings: 1 μM spraying every 24 hours for one week, water control 91
Procedure: as §1

[10] = test system: Botrytis cinerea; assay: Control of Botrytis cinerea disease in tomato (Bc-SI); settings: 1 μM spraying every 24 hours for one week, water control 7.4
Procedure: as §1

[11] = test system: Candidatus 'Liberibacter asiaticus'; settings: spraying every 15 days, 12 months after treatment, Citrus sinensis with HLB
[12] = test system: Pratylenchus coffeae; assay: Nematode control, nodules per plant: Pratylenchus coffeae; settings: 1 μM foliar application every 5 days, evaluation 35 days after, control 42
Procedure: as §2

| SMILES | Bc-Nt: mean of the diameter of the lesion [1] [mm] | Mi: number of nodules per plant [2] | Bc-At: mean of the diameter of the lesion [3] [mm] | N-Nt: percentage of mortality [4] [%] | Rs-Nt: percentage of mortality [5] [%] | Rs: number of nodules per plant [6] | Rs-SI: percentage of mortality [7] [%] | As-SI: percentage of leaves with the disease symptoms [8] [%] | Pp-Nt: percentage of mortality [9] [%] | Bc-SI: mean of the diameter of the lesion [10] [mm] | Titers of the bacterium ([11]; 0.001 μM) [copies per reaction] | Titers of the bacterium ([11]; 0.01 μM) [copies per reaction] | Titers of the bacterium ([11]; 1 μM) [copies per reaction] | Titers of the bacterium ([11]; 5 μM) [copies per reaction] | Titers of the bacterium ([11]; 10 μM) [copies per reaction] | Pc: number of nodules per plant [12] |
| --- | --- | --- | --- | --- | --- | --- | --- | --- | --- | --- | --- | --- | --- | --- | --- | --- |
| Cc1c(CCC(=O)NCC(O)CO)c(=O)oc2cc3occ(-c4ccccc4)c3cc12 (centres unmarked) [II, N-(2,3-dihydroxypropyl)-3-{4-methyl-2-oxo-6-phenyl-2H-furo[3,2-g]chromen-3-yl}propanamide] | 0.9 | 3 | 0.5 | 1 | 3 | 2 | 2 | 2 | 2 | 0.8 | 756 | 14 | 14 | 76 | 8420 | 13 |
| O=C(CCc1cc2cc3c(-c4ccc5ccccc5c4)coc3cc2oc1=O)NCC(O)CO (centres unmarked) [IE, N-(2,3-dihydroxypropyl)-3-[6-(naphthalen-2-yl)-2-oxo-2H-furo[3,2-g]chromen-3-yl]propanamide] | 1.5 | 0 | 2.4 | 0 | 0 | 0 | 0 | 7 | 0 | 0.8 | 587 | 0 | 0 | 87 | 6574 | 0 |
| Cc1c2c(oc(=O)c1CC(=O)NCC(O)CO)C=CC1C(c3ccccc3)=COC21 (centres unmarked) [III, N-(2,3-dihydroxypropyl)-2-{13-methyl-11-oxo-5-phenyl-3,10-dioxatricyclo[7.4.0.0^{2,6}]trideca-1(9),4,7,12-tetraen-12-yl}acetamide] | 1.5 | 3 | 2.4 | 1 | 3 | 2 | 2 | 2 | 2 | 0.8 | 456 | 0 | 1 | 56 | 3654 | 1 |
| O=C(CC1COc2ccc(C(=O)NC3CCCCC3)cc2N1)NC(CO)CO (centres unmarked) [VE, N-cyclohexyl-3-{[(1,3-dihydroxypropan-2-yl)carbamoyl]methyl}-3,4-dihydro-2H-1,4-benzoxazine-6-carboxamide] | 0.9 | 0 | 0.5 | 0 | 0 | 3 | 1 | 7 | 3 | 0.8 | 587 | 0 | 0 | 87 | 4587 | 0 |
| O=C(c1ccc(OC2CCN(CC(O)CO)CC2)cc1)N1CCC(c2ccccc2)C1 (centres unmarked) [IVC, 3-(4-{4-[(3-phenylpyrrolidin-1-yl)carbonyl]phenoxy}piperidin-1-yl)propane-1,2-diol] | 0.3 | 2 | 1.2 | 1 | 2 | 14 | 3 | 1 | 1 | 0.8 | 123 | 4 | 0 | 23 | 3541 | 13 |
| Cc1c2c(oc(=O)c1CC(=O)NCC(O)CO)C=CC1C=COC21 (centres unmarked) [IIM, N-(2,3-dihydroxypropyl)-2-{13-methyl-11-oxo-3,10-dioxatricyclo[7.4.0.0^{2,6}]trideca-1(9),4,7,12-tetraen-12-yl}acetamide] | 0.9 | 0 | 0.5 | 0 | 0 | 0 | 1 | 5 | 0 | 0.8 | 524 | 0 | 0 | 54 | 8542 | 0 |
| CNC(=O)c1ccc2c(c1)NC(CC(=O)NC(CO)CO)CO2 (centres unmarked) [VA, 3-{[(1,3-dihydroxypropan-2-yl)carbamoyl]methyl}-N-methyl-3,4-dihydro-2H-1,4-benzoxazine-6-carboxamide] | 1.5 | 4 | 2.4 | 2 | 4 | 1 | 2 | 3 | 1 | 0.8 | 524 | 1 | 5 | 54 | 5478 | 2 |
| Cc1nc(N2CCN(C3CCCC3)CC2)ncc1C(=O)N1CC2CC(O)C(O)CC2C1 (centres unmarked) [IIIH, 2-{[2-(4-cyclopentylpiperazin-1-yl)-4-methylpyrimidin-5-yl]carbonyl)-octahydro-1H-isoindole-5,6-diol] | 0.9 | 2 | 0.7 | 1 | 2 | 14 | 3 | 1 | 1 | 1.2 | 456 | 15 | 6 | 56 | 3657 | 16 |
